In patent EP0532446A1, “Use of xanthines in the treatment or prevention of hypeoglycemia” (NOVO NORDISK A/S, priority 1991, dated 1993):
“And” between values parts separate entries of the source, which are not always exact repeats. Equal values may be shown once.

Columns and labels:
Type in all cases: in vivo
[1] = Influence of theophyllamine on the blood glucose level after insulin-induced hypoglycaemia in diabetic patients
Description: (§1) Under carefully controlled conditions hypoglycaemia was induced in each of nine diabetic patients by injection of Actrapid® Human insulin, 0.15 IU/kg (available from Novo Nordisk A/S, Bagsvaerd, Denmark). The blood glucose level was monitored from just before the injection of the insulin took place until 2 hours after. The basal level, the nadir level and the level after 1 hour and 2 hours for each subject are given in Table 2 under the entry "placebo".
(§2) On a different day a study similar to the one described above was performed on the same patients, the only difference being that in this second study theophyllamine was administered concomitantly with the insulin. The theophyllamine was administered in the form of a bolus injection of 220 mg per person followed by a constant rate infusion of theophyllamine of 2,5 mg/kg body weight/hour. The corresponding glucose levels are given in Table 2 under the entry "theophyllamine".

[2] = Influence of theophyllamine on the blood glucose level after insulin-induced hypoglycaemia in healthy subjects
Description: as §1, with “of eleven healty subjects” for “of nine diabetic patients”, “Table 1” for “Table 2”
as §2, with “same subjects,” for “same patients,”, “person given at the same time as the insulin” for “person”, “Table 1” for “Table 2”

[3] = Awareness of early hypoglycaemia warning symptoms in diabetic patients taking theophyllamine regularly; conditions: some diabetic patients who have taken theophyllamine regularly as a preventive measure
Source text: Usually hypoglycaemia can be relieved by administration of glucose or glucagon. Normally, but not always, a hypoglycaemic episode is preceded by some early warning symptoms which makes it possible for the patient to take measures against it. Throughout this specification the diabetic patients' attention to these early warning symptoms is in accordance with the common usage referred to as the "awareness".

[4] = diabetic patients, given concomitantly with the insulin
[5] = individual diabetic patients No. 1-9, insulin 0.15 IU/kg, theophyllamine bolus 220 mg per person + infusion 2,5 mg/kg body weight/hour
[6] = mean of nine diabetic patients, insulin 0.15 IU/kg, theophyllamine bolus 220 mg per person + infusion 2,5 mg/kg body weight/hour
[7] = healthy subjects, given concomitantly with the insulin
[8] = individual healthy subjects No. 1-11, insulin 0.15 IU/kg, theophyllamine bolus 220 mg per person + infusion 2,5 mg/kg body weight/hour
[9] = mean of eleven healthy subjects, insulin 0.15 IU/kg, theophyllamine bolus 220 mg per person + infusion 2,5 mg/kg body weight/hour

Cn1c(=O)c2[nH]cnc2n(C)c1=O [Theophyllamine, theophyllamine]
glucose level 1 hour after the administration of insulin compared with insulin alone (placebo) [1, 4]: higher
glucose level 2 hours after the administration of insulin compared with insulin alone (placebo) [1, 4]: higher
nadir level compared with insulin alone (placebo) [1, 4]: higher
Nadir Level (blood glucose) [1, 5]: 1.5 mmol/l (2×) and 4.1 mmol/l and 1.1 mmol/l (2×) and 1.7 mmol/l and 2.6 mmol/l and 1.4 mmol/l and 2.2 mmol/l
blood glucose level 1 hr after insulin [1, 5]: 2.9 mmol/l (2×) and 2.1 mmol/l (3×) and 4.4 mmol/l and 1.9 mmol/l and 2.5 mmol/l (2×)
blood glucose level 2 hr after insulin [1, 5]: 4.8 mmol/l and 3.7 mmol/l (2×) and 6.4 mmol/l and 3.1 mmol/l and 3.0 mmol/l (3×) and 3.8 mmol/l
Basal Level (blood glucose) ([1]; individual diabetic patients No. 1-9, just before injection of insulin 0.15 IU/kg and theophyllamine): 4.8 mmol/l and 4.5 mmol/l (2×) and 5.5 mmol/l and 4.6 mmol/l and 5.6 mmol/l and 4.7 mmol/l and 6.0 mmol/l and 4.9 mmol/l
Nadir level (blood glucose), MEAN [1, 6]: 2.2 mmol/L
blood glucose level 1 hr after insulin, MEAN [1, 6]: 2.6 mmol/L
blood glucose level 2 hr after insulin, MEAN [1, 6]: 3.8 mmol/L
Basal Level (blood glucose), MEAN ([1]; mean of nine diabetic patients, just before injection of insulin 0.15 IU/kg and theophyllamine): 5.0 mmol/L
glucose level 1 hour after the administration of insulin compared with insulin alone (placebo) [2, 7]: higher
glucose level 2 hours after the administration of insulin compared with insulin alone (placebo) [2, 7]: higher
nadir level compared with insulin alone (placebo) [2, 7]: higher
Nadir Level (blood glucose) [2, 8]: 1.5 mmol/l (2×) and 1.3 mmol/l (2×) and 1.4 mmol/l and 2.0 mmol/l (2×) and 1.9 mmol/l and 1.6 mmol/l and 1.7 mmol/l and 2.4 mmol/l
blood glucose level 1 hr after insulin [2, 8]: 2.7 mmol/L and 2.4 mmol/L and 2.3 mmol/L and 3.1 mmol/L and 2.8 mmol/L and 2.5 mmol/L and 3.0 mmol/L and 3.8 mmol/L and 2.6 mmol/L and 3.4 mmol/L and 2.0 mmol/L
blood glucose level 2 hr after insulin [2, 8]: 3.9 mmol/l and 2.6 mmol/l and 3.1 mmol/l and 4.3 mmol/l (2×) and 4.1 mmol/l and 3.5 mmol/l (2×) and 4.5 mmol/l and 5.4 mmol/l and 5.1 mmol/l
Basal Level (blood glucose) ([2]; individual healthy subjects No. 1-11, just before injection of insulin 0.15 IU/kg and theophyllamine): 5.2 mmol/l (4×) and 5.0 mmol/l (2×) and 5.9 mmol/l and 5.8 mmol/l (2×) and 5.6 mmol/l and 5.7 mmol/l
Nadir level (blood glucose), MEAN [2, 9]: 1.7 mmol/L
blood glucose level 1 hr after insulin, MEAN [2, 9]: 2.8 mmol/L
blood glucose level 2 hr after insulin, MEAN [2, 9]: 4.0 mmol/L
Basal Level (blood glucose), MEAN ([2]; mean of eleven healthy subjects, just before injection of insulin 0.15 IU/kg and theophyllamine): 5.4 mmol/L
awareness [3]: improved awareness
